US8389541B2, “Inhibitors of protein tyrosine kinase activity” (MethylGene Inc., priority 2007, dated 2013)
Like-named read-outs stand apart in the source and are kept apart here.

Columns and labels:
Design in all cases: species or system mice
H1437 tumor = assay: In vivo solid tumor disease model, H1437; conditions: H1437, 15 mg/kg orally daily, 16 days
U87MG tumor = assay: In vivo solid tumor disease model, U87MG; conditions: Mus musculus, U-87 MG, po, 20 mg/kg orally daily, read-out: Tumor Growth Inhibition (%)
Text: (§1) This test measures the capacity of compounds to inhibit solid tumor growth.
(§2) Tumor xenografts are established in the flank of female athymic CD1 mice (Charles River Inc.), by subcutaneous injection of 1×106 U87, A431 or SKLMS cells/mouse. Once established, tumors are then serially passaged s.c. in nude mice hosts. Tumor fragments from these host animals are used in subsequent compound evaluation experiments. For compound evaluation experiments female nude mice weighing approximately 20 g are implanted s.c. by surgical implantation with tumor fragments of ˜30 mg from donor tumors. When the tumors are approximately 100 mm3 in size (˜7-10 days following implantation), the animals are randomized and separated into treatment and control groups. Each group contains 6-8 tumor-bearing mice, each of which is ear-tagged and followed individually throughout the experiment.
(§3) Mice are weighed and tumor measurements are taken by calipers three times weekly, starting on Day 1. These tumor measurements are converted to tumor volume by the well-known formula (L+W/4)3 4/3π. The experiment is terminated when the control tumors reach a size of approximately 1500 mm^3. In this model, the change in mean tumor volume for a compound treated group/the change in mean tumor volume of the control group (non-treated or vehicle treated)×100 (ΔT/ΔC) is subtracted from 100 to give the percent tumor growth inhibition (% TGI) for each test compound. In addition to tumor volumes, body weight of animals is monitored twice weekly for up to 3 weeks.

SKLMS tumor = assay: In vivo solid tumor disease model, SKLMS; conditions: 20 mg/kg orally daily, 15 days
Text: as §1, §2
Mice are weighed and tumor measurements are taken by calipers three times weekly, starting on Day 1. These tumor measurements are converted to tumor volume by the well-known formula (L+W/4)3 4/3π. The experiment is terminated when the control tumors reach a size of approximately 1500 mm^3. […] In addition to tumor volumes, body weight of animals is monitored twice weekly for up to 3 weeks.

Panc-1 tumor = assay: In vivo solid tumor disease model, Panc-1; conditions: Panc-1, 20 mg/kg orally daily, 13 days
MNNG HOS tumor = assay: In vivo solid tumor disease model, MNNG HOS; conditions: 20 mg/kg orally daily, 6 days
MKN45 tumor = assay: In vivo solid tumor disease model, MKN45; conditions: Mus musculus, MKN-45, po, MKN45, 20 mg/kg orally daily, read-out: Tumor Growth Inhibition (%)
SKLMS40 tumor = assay: In vivo solid tumor disease model, SKLMS40; conditions: Mus musculus, po, 312 h; SKLMS40, 20 mg/kg orally daily, 13 days; read-out: Tumor Growth Inhibition (%)
Text: as §1, §2, §3

A549 tumor = assay: In vivo solid tumor disease model, A549; conditions: A549, 20 mg/kg orally daily, 12 days
MDAMB231 tumor = assay: In vivo solid tumor disease model, MDAMB231; conditions: MDAMB231, 20 mg/kg orally daily, 13 days
HCT116 tumor = assay: In vivo solid tumor disease model, HCT116; conditions: HCT116, 20 mg/kg orally daily, 13 days

## COCCNCc1ccc(-c2cc3nccc(Oc4ccc(NC(=S)NC(=O)Cc5ccc(F)cc5)c(F)c4)c3s2)nc1
H1437 tumor
  Tumor Growth Inhibition (%): A (tumor growth inhibition of less than 25%)

## COCCNCc1ccc(-c2cc3nccc(Oc4ccc(NC(=O)Nc5coc(C)c5)cc4F)c3s2)nc1
U87MG tumor; 312 h, 13 days
  inhibition in vivo at 20 mg/kg: ≥ 75%
SKLMS tumor
  Tumor Growth Inhibition (%): D D D (tumor growth inhibition of ≧75%)
Panc-1 tumor
  Tumor Growth Inhibition (%): D D D (tumor growth inhibition of ≧75%)

## COCCNCc1ccc(-c2cc3nccc(Oc4ccc(NC(=O)C5(C(=O)Nc6ccc(F)cc6)CC5)cc4F)c3s2)o1
Panc-1 tumor
  Tumor Growth Inhibition (%): D (tumor growth inhibition of ≧75%)

## COCCNCc1ccc(-c2cc3nccc(Oc4ccc(NC(=O)NNC(=O)c5ccccc5)cc4F)c3s2)nc1
Panc-1 tumor
  Tumor Growth Inhibition (%): A (tumor growth inhibition of less than 25%)

## COCCNCc1cccc(-c2cc3nccc(Oc4ccc(NC(=S)NC(=O)Cc5ccc(F)cc5)cc4F)c3s2)c1 [drawing 360]
MNNG HOS tumor
  Tumor Growth Inhibition (%): A (tumor growth inhibition of less than 25%)
MKN45 tumor; 168 h, 7 days
  inhibition in vivo at 20 mg/kg: 50 to 75%

## COCCNCc1ccc(-c2cc3nccc(Oc4ccc(NC(=O)CC(=O)N(C)c5ccccc5)cc4F)c3s2)nc1 [drawing 373]
MKN45 tumor; 312 h, 13 days
  inhibition in vivo at 20 mg/kg: 50 to 75%
U87MG tumor; 288 h, 12 days
  inhibition in vivo at 20 mg/kg: 25 to 50%
SKLMS40 tumor
  inhibition in vivo at 20 mg/kg: < 25%
A549 tumor
  Tumor Growth Inhibition (%): C (tumor growth inhibition of ≧50% but <75%)

## COCCNCc1ccc(-c2cc3nccc(Oc4ccc(NC(=O)C5(C(=O)Nc6ccccc6)CC5)cc4F)c3s2)nc1 [drawing 374]
MKN45 tumor; 312 h, 13 days
  inhibition in vivo at 20 mg/kg: ≥ 75%
U87MG tumor; 288 h, 12 days
  inhibition in vivo at 20 mg/kg: ≥ 75%
SKLMS40 tumor
  inhibition in vivo at 20 mg/kg: 50 to 75%
A549 tumor
  Tumor Growth Inhibition (%): C (tumor growth inhibition of ≧50% but <75%)

## COCCNCc1ccc(-c2cc3nccc(Oc4ccc(NC(=O)C5(C(=O)Nc6ccc(F)cc6)CC5)cc4F)c3s2)nc1 [drawing 376]
U87MG tumor; 288 h, 12 days
  inhibition in vivo at 20 mg/kg: ≥ 75%
SKLMS40 tumor
  inhibition in vivo at 20 mg/kg: ≥ 75%
MDAMB231 tumor
  Tumor Growth Inhibition (%): D D D (tumor growth inhibition of ≧75%)

## COCCNCc1ccc(-c2cc3nccc(Oc4ccc(NC(=O)Nc5cc(C(C)(C)C)on5)cc4F)c3s2)nc1 [drawing 379]
HCT116 tumor
  Tumor Growth Inhibition (%): C (tumor growth inhibition of ≧50% but <75%)
